Measured values reported in patent US20040253265A1, “Biological compositions and methods for treatment of bladder cancer” (priority 2003, published 2004).

What was measured:
[1] = test system: BBN-induced T739 bladder cancer cells (murine bladder transitional cell line BTT739); test: Survival of T739 mice with transplanted bladder cancer cells (Example 7); assay type: in vivo; conditions: for Number of live animals remaining in the groups after 30 days of treatment: 30 mice per group
Protocol: The following example illustrates the benefit of a biological composition of the invention in a mouse model of human bladder cancer based on a murine bladder transitional cell line BTT739. The survival time of mice after tumor injection and treatment was studied.
(§1) The biological composition comprising 10^8 cells per ml of activated and conditioned yeast cells of the strain Saccharomyces cerevisiae Hansen strain AS2.4 was prepared by the methods described in Sections 5.1 and subsections therein.
The tumors were prepared in a similar manner as described in Sections 6.1.
The animals were prepared in a similar manner as described in Section 6.2.
(§2) The mice injected with tumor cells were kept for 5 days and then were divided into 4 experimental groups of ten mice per group and one control group. The four experimental groups were triplicated (i.e., using a total of 120 mice in the experimental groups). In group 2AY, the mice received 0.3 ml of the biological composition once per day. In group 2NY, the mice received 0.3 ml of the untreated yeast cells once per day. In group 2TSPA, the mice were injected intravenously with 1.5 mg of thiotepa (TSPA) per kg body weight per day. In group 2CK1, the mice received 0.3 ml of physiological saline once per day.
(§3) The mice received a biological composition, untreated yeast cells, TSPA or saline on the same day as the tumor cells were transplanted. The mice in group CK2 also started receiving saline on the same day as the other four groups. The biological composition, untreated yeast cells or saline were administered orally by a feeding tube and the TSPA by intravenous injection for 30 consecutive days. The mice were observed over 6 months from the day of tumor inoculation and survival was recorded. The weight of the mice and the weight of the tumor were determined by standard techniques.
Each of the 30 mice in each group received 30 consecutive days of either untreated yeast cells, TSPA, saline or a biological composition of the invention.

[2] = test system: BBN-induced T739 bladder cancer cells (murine bladder transitional cell line BTT739); test: Tumor growth in T739 mice with transplanted bladder cancer cells (Example 6); assay type: in vivo, mouse; conditions: tumor-bearing T739 mice; 30 consecutive days of treatment (yeast 0.3 ml oral once per day; TSPA 1.5 mg/kg/day i.v.); sacrificed on 31st day
Protocol: The mice injected with tumor cells were kept for 5 days and then were divided into 4 experimental groups of ten mice per group and one control group. The four experimental groups were triplicated (i.e., using a total of 120 mice in the experimental groups).
The mice in group CK2 also started receiving saline on the same day as the other four groups. […] The weight of the mice and the weight of the tumor were determined by standard techniques.

[3] = test system: bladder cell line BBN; test: Survival of Wistar rats with transplanted bladder cancer cells (Example 9); assay type: in vivo; conditions: for Number of live animals remaining in the groups after 30 days of treatment: 30 rats per group
Protocol: The following example illustrates the benefit of a biological composition of the invention in a Wistar rat model of human bladder cancer. The survival time of the rats after tumor injection and treatment was studied.
as §1
The animals were prepared in a similar manner as described in Section 8.1.
as §2, with “rats” for “mice”, “2VCR,” for “2TSPA,”, “3” for “1.5”, “[…] (VCR)” for “thiotepa (TSPA)”
as §3, with “The rats” for “The mice”, “cells, VCR” for “cells, TSPA”, “group 2CK2” for “group CK2”, “cells and” for “cells or”, “the VCR” for “the TSPA”, “the rats” for “the mice”
Each of the 30 rats in each group received 30 consecutive days of either untreated yeast cells, VCR, saline or a biological composition of the invention.

[4] = test system: bladder cell line BBN; test: Tumor growth in Wistar rats with transplanted bladder cancer cells (Example 8); assay type: in vivo, rat; conditions: tumor-bearing Wistar rats; 30 consecutive days of treatment (yeast 0.3 ml oral once per day; VCR 3 mg/kg/day i.v.); sacrificed on 31st day
Protocol: The four experimental groups were triplicated (i.e., using a total of 120 rats in the experimental groups).
The weight of the rats and the weight of the tumor were determined by standard techniques.

[5] = 0 month after cessation of treatment
[6] = 1 month after cessation of treatment
[7] = 2 months after cessation of treatment
[8] = 3 months after cessation of treatment
[9] = 4 months after cessation of treatment
[10] = 5 months after cessation of treatment
[11] = 6 months after cessation of treatment
[12] = mice that survived the 6 months observation after 30 days of treatment
[13] = rats that survived the 6 months observation after 30 days of treatment

S=P(N1CC1)(N1CC1)N1CC1 [TSPA, thiotepa]
Number of live animals remaining in the groups after 30 days of treatment [1, 5]: 30 | Number of live animals remaining in the groups after 30 days of treatment [1, 6]: 24 | Number of live animals remaining in the groups after 30 days of treatment [1, 7]: 11 | Number of live animals remaining in the groups after 30 days of treatment [1, 8]: 7 | Number of live animals remaining in the groups after 30 days of treatment [1, 9]: 2 | Number of live animals remaining in the groups after 30 days of treatment [1, 10]: 0 | Number of live animals remaining in the groups after 30 days of treatment [1, 11]: 0 | survival outcome during the experiment ([1]; 30 days of treatment, observed over 6 months): all died during the experiment | mean weight of mice and standard deviation [1, 12]: all animals dead | mean weight of tumor nodules and standard deviation [1, 12]: all animals dead | mean weight of mice and standard deviation [2]: 19.5 ± 2.2 g | mean weight of tumor nodules and standard deviation [2]: 3.3 ± 2.1 mg

CC[C@]1(O)C[C@@H]2CN(CCc3c([nH]c4ccccc34)[C@@](C(=O)OC)(c3cc4c(cc3OC)N(C)[C@H]3[C@@](O)(C(=O)OC)[C@H](OC(C)=O)[C@]5(CC)C=CCN6CC[C@]43[C@@H]65)C2)C1 [VCR, vinblastine]
Number of live animals remaining in the groups after 30 days of treatment [3, 5]: 30 | Number of live animals remaining in the groups after 30 days of treatment [3, 6]: 30 | Number of live animals remaining in the groups after 30 days of treatment [3, 7]: 30 | Number of live animals remaining in the groups after 30 days of treatment [3, 8]: 30 | Number of live animals remaining in the groups after 30 days of treatment [3, 9]: 30 | Number of live animals remaining in the groups after 30 days of treatment [3, 10]: 28 | Number of live animals remaining in the groups after 30 days of treatment [3, 11]: 26 | mean weight of rats and standard deviation [3, 13]: all animals dead | mean weight of tumor nodules and standard deviation [3, 13]: all animals dead | mean weight of rats and standard deviation [4]: 191.3 ± 12.4 g | mean weight of tumor nodules and standard deviation [4]: 2.65 ± 1.7 g
